Earlier results as cited in US20200155510A1, “TREATMENT OF AUTOIMMUNE DISORDERS, SUCH AS RELAPSING REMITTING MULTIPLE SCLEROSIS AND […] SYNDROME WITH BIOTIN COMPOSITIONS” (JDS Therapeutics, LLC, priority 2018, published 2020).

Settings: relative to biotin; background statement, no method given

O=C(O)CCCC[C@@H]1SC[C@@H]2NC(=O)N[C@@H]21 [Magnesium biotinate, Magnesium D-biotinate]
water solubility: more water soluble than biotin
